Assay results from PubChem BioAssay AID1259411 (Chemical Carcinogenesis Research Information System (CCRIS), 2018).
Calls of active or inactive are those of the source. The rule behind the calls is not given here.

Test system: rodent carcinogenicity bioassays, tumor incidence
Test: CCRIS carcinogenicity studies
Method in brief: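 Archive of carcinogenicity, mutagenicity, tumor promotion and tumor inhibition results drawn from journals, NCI reports and other sources, expert-reviewed; covers 1985-2011 and is no longer updated.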

## OC[P+](CO)(CO)CO
Species: MOUSE, Strain/Sex: B6C3F1/FEMALE, Route: GAVAGE, Dose: 0, 5, 10 MG/KG IN DISTILLED WATER 5 D/WK FOR 103 WK, Dose: 0, 5, 10 MG/KG IN DISTILLED WATER 5 D/WK FOR 103 WK
  carcinogen call: inactive; negative
Species: MOUSE, Strain/Sex: B6C3F1/FEMALE, Route: GAVAGE, Dose: 0, 15, 30 MG/KG IN DISTILLED WATER 5 D/WK FOR 103 WK, Dose: 0, 15, 30 MG/KG IN DISTILLED WATER 5 D/WK FOR 103 WK
  carcinogen call: inactive; negative
Species: MOUSE, Strain/Sex: B6C3F1/MALE, Route: GAVAGE, Dose: 0, 5, 10 MG/KG IN DISTILLED WATER 5 D/WK FOR 103 WK, Dose: 0, 5, 10 MG/KG IN DISTILLED WATER 5 D/WK FOR 103 WK
  carcinogen call: inactive; negative
Species: MOUSE, Strain/Sex: B6C3F1/MALE, Route: GAVAGE, Dose: 0, 7.5, 15 MG/KG IN DISTILLED WATER 5 D/WK FOR 103 WK, Dose: 0, 7.5, 15 MG/KG IN DISTILLED WATER 5 D/WK FOR 103 WK
  carcinogen call: inactive; negative
Species: RAT, Strain/Sex: F344/FEMALE, Route: GAVAGE, Dose: 0, 3.75, 7.5 MG/KG IN DISTILLED WATER 5 D/WK FOR 103 WK, Dose: 0, 3.75, 7.5 MG/KG IN DISTILLED WATER 5 D/WK FOR 103 WK
  carcinogen call: inactive; negative
Species: RAT, Strain/Sex: F344/FEMALE, Route: GAVAGE, Dose: 0, 5, 10 MG/KG IN DISTILLED WATER 5 D/WK FOR 104 WK, Dose: 0, 5, 10 MG/KG IN DISTILLED WATER 5 D/WK FOR 104 WK
  carcinogen call: inactive; negative
Species: RAT, Strain/Sex: F344/MALE, Route: GAVAGE, Dose: 0, 3.75, 7.5 MG/KG IN DISTILLED WATER 5 D/WK FOR 103 WK, Dose: 0, 3.75, 7.5 MG/KG IN DISTILLED WATER 5 D/WK FOR 103 WK
  carcinogen call: inactive; negative
Species: RAT, Strain/Sex: F344/MALE, Route: GAVAGE, Dose: 0, 5, 10 MG/KG IN DISTILLED WATER 5 D/WK FOR 104 WK, Dose: 0, 5, 10 MG/KG IN DISTILLED WATER 5 D/WK FOR 104 WK
  carcinogen call: inactive; negative

## CN(C=O)N=O
Species: HAMSTER, Strain/Sex: SYRIAN/FEMALE, Route: GAVAGE, Dose: 0, 0.6 MG IN CORN OIL 1/WK FOR 15 WK (STUDY DURATION: 30 WK)
  carcinogen call: inactive; negative
Species: HAMSTER, Strain/Sex: SYRIAN/MALE, Route: GAVAGE, Dose: 0, 0.6 MG IN CORN OIL 1/WK FOR 15 WK (STUDY DURATION: 35 WK), Tumor Site: Type of Lesion: FORESTOMACH: TUMOR
  carcinogen call: active; positive
Species: RAT, Strain/Sex: F344/FEMALE, Route: GAVAGE, Dose: 0, 0.6 MG IN CORN OIL 2/WK FOR 20 WK (STUDY DURATION: 40 WK), Tumor Site: Type of Lesion: FORESTOMACH: TUMOR, ESOPHAGUS: TUMOR
  carcinogen call: active; positive
Species: RAT, Strain/Sex: F344/MALE, Route: GAVAGE, Dose: 0, 0.6 MG IN CORN OIL 2/WK FOR 20 WK (STUDY DURATION: 40 WK), Tumor Site: Type of Lesion: FORESTOMACH: TUMOR
  carcinogen call: active; positive

## O=P(OC(CCl)CCl)(OC(CCl)CCl)OC(CCl)CCl
Species: RAT, Strain/Sex: SPRAGUE-DAWLEY CD/FEMALE, Route: ORAL, Dose: 0, 5, 20, 80 MG/KG/D IN FEED FOR 2 YR (STUDY DURATION: 2 YR), Dose: 0, 5, 20, 80 MG/KG/D IN FEED FOR 2 YR (STUDY DURATION: 2 YR), Tumor Site: Type of Lesion: ADRENAL GLAND: CORTICAL ADENOMA, KIDNEY: CORTICAL ADENOMA, LIVER: HEPATOCELLULAR ADENOMA, Tumor Site: Type of Lesion: ADRENAL GLAND: CORTICAL ADENOMA, KIDNEY: CORTICAL ADENOMA, LIVER: HEPATOCELLULAR ADENOMA
  carcinogen call: active; positive
Species: RAT, Strain/Sex: SPRAGUE-DAWLEY CD/MALE, Route: ORAL, Dose: 0, 5, 20, 80 MG/KG/D IN FEED FOR 2 YR (STUDY DURATION: 2 YR), Dose: 0, 5, 20, 80 MG/KG/D IN FEED FOR 2 YR (STUDY DURATION: 2 YR), Tumor Site: Type of Lesion: KIDNEY: RENAL CORTICAL ADENOMA, LIVER: HEPATOCELLULAR ADENOMA, TESTES: INTERSTITIAL CELL TUMOR, Tumor Site: Type of Lesion: KIDNEY: RENAL CORTICAL ADENOMA, LIVER: HEPATOCELLULAR ADENOMA, TESTES: INTERSTITIAL CELL TUMOR
  carcinogen call: active; positive

## ClC(Cl)(Cl)C(Cl)(Cl)Cl
Species: MOUSE, Strain/Sex: B6C3F1/FEMALE, Route: GAVAGE, Dose: 0, 590, 1179 MG/KG, TWA, Dose: 0, 590, 1179 MG/KG, TWA, Tumor Site: Type of Lesion: LIVER: HEPATOCELLULAR CARCINOMA
  carcinogen call: active; positive
Species: MOUSE, Strain/Sex: B6C3F1/MALE, Route: GAVAGE, Dose: 0, 590, 1179 MG/KG, TWA, Dose: 0, 590, 1179 MG/KG, TWA, Tumor Site: Type of Lesion: LIVER: HEPATOCELLULAR CARCINOMA
  carcinogen call: active; positive
Species: RAT, Strain/Sex: F344/F, Route: GAVAGE, Dose: 0, 80, 160 MG/KG IN CORN OIL 5D/WK FOR 103 WK (STUDY DURATION: 105 WK), Dose: 0, 80, 160 MG/KG IN CORN OIL 5D/WK FOR 103 WK (STUDY DURATION: 105 WK)
  carcinogen call: inactive; negative
Species: RAT, Strain/Sex: F344/M, Route: GAVAGE, Dose: 0, 10, 20 MG/KG IN CORN OIL 5D/WK FOR 103 WK (STUDY DURATION: 105 WK), Dose: 0, 10, 20 MG/KG IN CORN OIL 5D/WK FOR 103 WK (STUDY DURATION: 105 WK), Tumor Site: Type of Lesion: ADRENAL MEDULLA: PHEOCHROMOCYTOMA, ADRENAL MEDULLA: PHEOCHROMOCYTOMA, BENIGN, COMPLEX OR MALIGNANT, KIDNEY: RENAL TUBULE, Tumor Site: Type of Lesion: ADRENAL MEDULLA: PHEOCHROMOCYTOMA, ADRENAL MEDULLA: PHEOCHROMOCYTOMA, BENIGN, COMPLEX OR MALIGNANT, KIDNEY: RENAL TUBULE
  carcinogen call: active; positive
Species: RAT, Strain/Sex: OSBORNE-MENDEL/FEMALE, Route: GAVAGE, Dose: 0, 212, 423 MG/KG, TWA FOR 44 WK, Dose: 0, 212, 423 MG/KG, TWA FOR 44 WK
  carcinogen call: inactive; negative
Species: RAT, Strain/Sex: OSBORNE-MENDEL/MALE, Route: GAVAGE, Dose: 0, 212, 423 MG/KG, TWA FOR 44 WK, Dose: 0, 212, 423 MG/KG, TWA FOR 44 WK
  carcinogen call: inactive; negative

## CN(C)N
Species: HAMSTER, Strain/Sex: SYRIAN/FEMALE, Route: SUBCUTANEOUS, Dose: 0, 8, 17, 35 MG/KG BW IN 0.9% SALINE 1/WK FOR LIFE (STUDY DURATION: LIFE SPAN), Dose: 0, 8, 17, 35 MG/KG BW IN 0.9% SALINE 1/WK FOR LIFE (STUDY DURATION: LIFE SPAN)
  carcinogen call: inactive; negative
Species: HAMSTER, Strain/Sex: SYRIAN/MALE, Route: SUBCUTANEOUS, Dose: 0, 8, 17, 35 MG/KG BW IN 0.9% SALINE 1/WK FOR LIFE (STUDY DURATION: LIFE SPAN), Dose: 0, 8, 17, 35 MG/KG BW IN 0.9% SALINE 1/WK FOR LIFE (STUDY DURATION: LIFE SPAN)
  carcinogen call: inactive; negative
Species: MOUSE, Route: ORAL, Tumor Site: Type of Lesion: LUNG, BLOOD VESSELS, LIVER, KIDNEY, Tumor Site: Type of Lesion: LUNG, BLOOD VESSELS, LIVER, KIDNEY
  carcinogen call: active; positive

## CC(C)[N+](=O)[O-]
Species: RAT, Route: INHALATION, Tumor Site: Type of Lesion: LIVER
  carcinogen call: active; positive

## Cn1c(=O)c2[nH]cnc2n(C)c1=O
Species: MOUSE, Strain/Sex: B6C3F1/FEMALE, Route: GAVAGE, Dose: 0, 7.5, 25, 75 MG/KG BW IN CORN OIL 5 D/WK FOR 726 D (STUDY DURATION: 2 YR), Dose: 0, 7.5, 25, 75 MG/KG BW IN CORN OIL 5 D/WK FOR 726 D (STUDY DURATION: 2 YR)
  carcinogen call: inactive; negative
Species: MOUSE, Strain/Sex: B6C3F1/MALE, Route: GAVAGE, Dose: 0, 15, 50, 150 MG/KG BW IN CORN OIL 5 D/WK FOR 726 D (STUDY DURATION: 2 YR), Dose: 0, 15, 50, 150 MG/KG BW IN CORN OIL 5 D/WK FOR 726 D (STUDY DURATION: 2 YR)
  carcinogen call: inactive; negative
Species: RAT, Strain/Sex: F344/FEMALE, Route: GAVAGE, Dose: 0, 7.5, 25, 75 MG/KG BW IN CORN OIL 5 D/WK FOR 729 D (STUDY DURATION: 2 YR), Dose: 0, 7.5, 25, 75 MG/KG BW IN CORN OIL 5 D/WK FOR 729 D (STUDY DURATION: 2 YR)
  carcinogen call: inactive; negative
Species: RAT, Strain/Sex: F344/MALE, Route: GAVAGE, Dose: 0, 7.5, 25, 75 MG/KG BW IN CORN OIL 5 D/WK FOR 729 D (STUDY DURATION: 2 YR), Dose: 0, 7.5, 25, 75 MG/KG BW IN CORN OIL 5 D/WK FOR 729 D (STUDY DURATION: 2 YR)
  carcinogen call: inactive; negative
